Data taken from ChEMBL document CHEMBL1240493, “Homology modeling and atomic level binding study of GABA(A) receptor with novel enaminone amides” (Eur J Med Chem, 2010).

Target: GABA-A receptor; alpha-1/beta-2/gamma-2 (Rattus norvegicus, UniProt P18508+P62813+P63138)
Assay: Inhibition of rat GABA alpha-1-beta-2-gamma-2 receptor
Format: protein-complex assay

Sequence of GABA-A receptor; alpha-1/beta-2/gamma-2 (P18508 whole entry): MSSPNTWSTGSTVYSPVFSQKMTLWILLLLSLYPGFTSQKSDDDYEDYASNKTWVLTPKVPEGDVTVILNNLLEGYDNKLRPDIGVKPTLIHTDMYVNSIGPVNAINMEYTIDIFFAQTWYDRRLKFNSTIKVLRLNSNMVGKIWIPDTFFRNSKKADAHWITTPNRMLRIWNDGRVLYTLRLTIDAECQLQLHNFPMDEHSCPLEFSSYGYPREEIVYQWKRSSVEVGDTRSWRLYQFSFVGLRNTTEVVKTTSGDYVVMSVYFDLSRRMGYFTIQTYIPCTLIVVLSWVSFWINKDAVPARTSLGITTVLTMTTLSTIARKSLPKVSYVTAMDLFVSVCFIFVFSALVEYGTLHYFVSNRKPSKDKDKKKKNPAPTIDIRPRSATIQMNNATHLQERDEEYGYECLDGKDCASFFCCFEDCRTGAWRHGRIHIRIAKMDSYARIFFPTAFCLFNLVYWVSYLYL
Sequence of GABA-A receptor; alpha-1/beta-2/gamma-2 (P62813 whole entry): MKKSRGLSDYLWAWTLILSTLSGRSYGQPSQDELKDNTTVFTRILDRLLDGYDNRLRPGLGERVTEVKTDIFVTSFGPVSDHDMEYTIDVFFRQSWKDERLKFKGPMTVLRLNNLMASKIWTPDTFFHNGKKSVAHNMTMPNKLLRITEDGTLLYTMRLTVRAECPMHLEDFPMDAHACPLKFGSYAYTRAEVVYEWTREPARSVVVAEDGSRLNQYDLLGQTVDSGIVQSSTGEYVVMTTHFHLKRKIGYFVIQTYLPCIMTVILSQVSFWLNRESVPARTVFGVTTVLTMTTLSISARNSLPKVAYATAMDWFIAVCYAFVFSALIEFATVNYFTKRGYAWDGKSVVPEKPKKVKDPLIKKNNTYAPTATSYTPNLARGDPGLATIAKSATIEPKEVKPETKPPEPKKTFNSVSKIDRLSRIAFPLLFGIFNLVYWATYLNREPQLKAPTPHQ
Sequence of GABA-A receptor; alpha-1/beta-2/gamma-2 (P63138 whole entry): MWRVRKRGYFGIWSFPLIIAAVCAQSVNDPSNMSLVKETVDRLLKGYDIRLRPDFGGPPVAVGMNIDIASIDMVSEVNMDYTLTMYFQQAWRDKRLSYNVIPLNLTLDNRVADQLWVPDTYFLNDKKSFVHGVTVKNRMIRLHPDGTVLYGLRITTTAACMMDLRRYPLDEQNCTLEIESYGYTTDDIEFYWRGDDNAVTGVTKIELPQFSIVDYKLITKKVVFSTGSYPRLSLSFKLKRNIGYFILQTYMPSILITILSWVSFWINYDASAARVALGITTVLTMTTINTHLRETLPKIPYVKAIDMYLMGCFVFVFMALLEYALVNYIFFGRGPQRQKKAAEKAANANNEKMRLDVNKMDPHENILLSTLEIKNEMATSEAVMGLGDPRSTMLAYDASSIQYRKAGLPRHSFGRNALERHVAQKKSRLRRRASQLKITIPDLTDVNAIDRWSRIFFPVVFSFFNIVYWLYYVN

SMILES	IC50
NC(=O)/C(=C\Nc1ccc(Cl)cc1)C(=O)c1ccccc1Cl	1700 nM
CCC(CC)NC(=O)/C(=C\Nc1ccc(Cl)cc1)C(=O)c1ccccc1Cl	79.4 nM
CCNC(=O)/C(=C\Nc1ccc(Cl)cc1)C(=O)c1ccccc1Cl	50.1 nM
CC(C)(C)NC(=O)/C(=C\Nc1ccc(Cl)cc1)C(=O)c1ccccc1Cl	3020 nM
CC(C)C(C)NC(=O)/C(=C\Nc1ccc(Cl)cc1)C(=O)c1ccccc1Cl (configuration not stated)	398 nM
CCC(C)NC(=O)/C(=C\Nc1ccc(Cl)cc1)C(=O)c1ccccc1Cl (configuration not stated)	20 nM
CCCNC(=O)/C(=C\Nc1ccc(Cl)cc1)C(=O)c1ccccc1Cl	44.7 nM

Continued, values first:

IC50	SMILES
158 nM	CNC(=O)/C(=C\Nc1ccc(Cl)cc1)C(=O)c1ccccc1Cl
39.8 nM	CC(C)NC(=O)/C(=C\Nc1ccc(Cl)cc1)C(=O)c1ccccc1Cl
30.2 nM	O=C(NC1CC1)/C(=C\Nc1ccc(Cl)cc1)C(=O)c1ccccc1Cl
30.2 nM	O=C(NC1CCCC1)/C(=C\Nc1ccc(Cl)cc1)C(=O)c1ccccc1Cl
7.08 nM	O=C(NC1CCC1)/C(=C\Nc1ccc(Cl)cc1)C(=O)c1ccccc1Cl
